The subject of this experiment is acetylcholine esterase (AChE). Description: Electrochemical (CV) inhibition of AChE activity on AChE/ChO/POD/CNT/DEN(PtNP)s-loaded SPCGC electrode. To be noted: for I x/Io: anodic peak current, 10 mM phosphate buffer pH 7.4 with ACh. Type of experiment: biochemical. As to the method: AChE, ChO and POD enzymes were adsorbed on CNT/DEN(PtNP)s-loaded SPCGC electrode. The aqueous solution containing AChE/ChO/POD was dropped on the CNT/DEN(PtNP)s-loaded SPCGC surface and the adsorption was allowed to occur for 24 hours. The AChE-ChO-POD-adsorbed CNT/DEN(PtNP)s-loaded (AChE/ChO/POD/CNT/DEN(PtNP)s-loaded) SPCGC DEP chip was stored at 4° C. till use.
Electrochemical detection of a DZN compound on the AChE/ChO/POD/CNT/DEN(PtNP)s-loaded SPCGC electrode was performed on a CV (a Hokuto-Denko HZ-3000) apparatus in the potential range of −0.6 to 1 V at a scan rate of 20 mVs^−1 in a phosphate buffer solution. All the measurements were carried out at room temperature in 2 cm^3 of a test solution, which has to cover the circular working electrode area of the sensors supported vertically during the CV measurement. The anodic oxidation peak at 0.06-0.1 V was used to evaluate the inhibition of AChE activity by DZN. The enzyme inhibition was calculated according to the following equation (Equation 1) (Dounin et al., Analytica Chimica Acta 2010, 669, 63-67): % inhibition=100(Io−Ix)/Io [Equation 1], wherein Io is the anodic peak current of oxidation at 0.06-0.1 V of a control sample in the absence of DZN, while Ix refers to the peak current of DZN-containing samples.
For the electrochemical detection of DZN compound, CNT/DEN(PtNP)s hybrids at M:D 0.4:1 was fabricated onto the SPCGC electrode. Then, an AChE/ChO/POD/CNT/DEN(PtNP)s-loaded SPCGC biosensor was developed by loading 10 mm^3 of 2.21 U of AChE, 4.3 U of ChO and 44.7 U of POD on the CNT/DEN(PtNP)s-loaded SPCGC electrode. The bioactivity of the AChE/ChO/POD/CNT/DEN(PtNP)s-loaded SPCGC biosensor was investigated by CV at room temperature.
The approach for determination of one (DZN) of organophosphate pesticides by this biosensor is based on the inhibition of AChE activity. In the absence of DZN, AChE hydrolyzes Ach to acetic acid and choline (Ch) (Lin et al., Electroanalysis, 2004, 16(1-2), 145-149):
The inhibition of AChE activity by DZN was determined by measuring the oxidation or reduction current of H2O2 which is correlated to the concentration of Ch produced by AChE.
This anodic oxidation peak is attributed to the oxidation of hydrogen peroxide (H2O2) generated from the enzymatic reaction of AChE and ChO. The peak potential of H2O2 oxidation by the present electrode was lower than by an AChE/ChO/CNT electrode (0.50 V) (Lin et al., Electroanalysis, 2004, 16(1-2), 145-149). […] Meanwhile, a very small reduction peak around −0.2 V was also observed at only the first CV scan. This peak is attributed to the reduction of the generated H2O2 by POD. […] Therefore, the inhibition of AChE by DZN can be determined by the decrease in the oxidation current at 0.09 V.
The obtained currents of anodic oxidation peak were utilized to evaluate the enzyme activity, […], and the inhibition value, (Io−Ix)/Io, where Io and Ix are current densities in ACh solutions without and with DZN.

With `CCOP(=S)(OCC)Oc1cc(C)nc(C(C)C)n1` [DZN, O,O-diethyl 0-2-isopropyl-6-methyl(pyrimidine-4-yl)phosphorothioate], the “% Enzyme Activity” value reads like this: (DZN 0.05 ppm) 78.6%; (DZN 0.1 ppm) 59.1%; (DZN 0.5 ppm) 52.5%; (DZN 1 ppm) 17.2%; (DZN 5 ppm) 23.2%; (DZN 10 ppm) 13.4%. In addition, the “% Inhibition” value is 21.4% (DZN 0.05 ppm); 40.9% (DZN 0.1 ppm); 47.6% (DZN 0.5 ppm); 82.8% (DZN 1 ppm); 76.8% (DZN 5 ppm); 86.6% (DZN 10 ppm). Besides, the “[Io-Ix]/Io” value is, setting by setting: (DZN 0.05 ppm) 0.214; (DZN 0.1 ppm) 0.409; (DZN 0.5 ppm) 0.475; (DZN 1 ppm) 0.828; (DZN 5 ppm) 0.768; (DZN 10 ppm) 0.866. The “I x/Io” value is 0.785 (DZN 0.05 ppm); 0.590 (DZN 0.1 ppm); 0.524 (DZN 0.5 ppm); 0.171 (DZN 1 ppm); 0.231 (DZN 5 ppm); 0.133 (DZN 10 ppm).
